These are literature values, as cited in paper PMC11291603, “Histidine-based ionizable cationic surfactants: novel biodegradable agents for hydrophilic macromolecular drug delivery” (Drug Delivery and Translational Research, 2024).

The conditions of data set [1]: as specified by the manufacturer.
The conditions of data set [2]: literature value, no reference given.

On to `CCCCCCCCC(CO)CCCCCC` (centres unmarked) [2-hexyl-1-decanol], for which the Aqueous solubility in data set [1] was 1 µg/mL. For `N[C@@H](Cc1c[nH]cn1)C(=O)O` [histidine], the “pKa of the imidazolium ring” value in data set [2] is recorded as 6.0-6.1.

The Aqueous solubility is the concentration that dissolves in the medium under given conditions.
